One compound from patent US6761694B2, “Methods for measuring retinal damage” (Allergan, Inc., priority 2001, dated 2004) can be followed below.

For the experiment, the system named is retina exposed to laser (secondary retinal damage). Put plainly: Retinal thickness analysis (Retinal Thickness Analyzer) after laser photocoagulation in a patient with AMD. The class given is in vivo, human. The source says:
In order to calculate the slope of retinal thickness, the thickness of the retina must be measured. In practicing the methods of the invention, it is preferred that the retinal thickness be measured in situ as compared to histologically. Retinal thickness may be measured using publicly available devices generally configured to image optical cross-sections of the retina, and to digitally process the cross-sections to result in a measurement of retinal thickness. One such device used to practice the methods of the invention is the Retinal Thickness Analyzer ([…] Technology, Ltd., […] Zion, Israel) as disclosed in U.S. Pat. No. 6,267,477, entitled, “Three dimensional imaging apparatus and a method for use thereof”. Another device that may be used to measure retinal thickness in the methods of the invention is the Optical Coherence Tomography (OCT) Scanner (Humphrey Instruments, Inc., San Leandro, Calif.) and as described in U.S. Pat. No. 5,491,524, entitled, “Optical coherence tomography corneal mapping apparatus”. Another device that may be used to measure retinal thickness in practicing the methods of the invention is the Heidelberg Retina Tomograph (HRT; Heidelberg Engineering GmbH, Heidelberg, Germany) and as described in U.S. Pat. No. 5,170,276, entitled, “Apparatus for imaging an object”. The images obtained by such devices can then be examined, and the slope of retinal thickness measured. The slope of retinal thickness may be calculated as a ratio by measuring the change in retinal thickness as a function of distance between two or more points of the retina near the lesion site. The human retina is approximately 200-250 μm thick. Using the devices described above, it is possible to optically cross-section the retina in 20 μm increments. If the retinal thickness changes by 200 μm over a distance of 20 μm, the corresponding slope of retinal thickness would be 10. Similarly, if the retinal thickness changes 200 μm over a distance of 2 mm, the corresponding slope would be 0.1. In the foregoing examples, a slope of 10 indicates the retinal damage is less than the retinal damage where the slope of damage is 0.1. Persons skilled in the art will appreciate that the slope of retinal thickness may be calculated over any number of distances, and that the smallest distance is only limited by the resolution of the devices used to practice the methods of the invention. A person presents with blurred vision in their right eye with particular distorted images near the middle of their visual field. An ophthalmologist conducts an eye exam. […] The ophthalmologist detects the presence of an abnormal amount of soft drusen. A diagnosis of age-related macular degeneration (AMD) is made. […]

`CC12CC3CC(C)(C1)CC(N)(C3)C2` [memantine]: the “secondary damage by retinal thickness analysis” value (memantine 0.25% w/v topically prior to laser treatment, after the surgery) is on record as “little secondary damage”. Besides, the “visual impairment on additional laser treatments” value (memantine 0.25% w/v topically, continued laser treatments) was “without significant visual impairment”. The “change in retinal thickness” value (over a distance of about 40 μm, memantine 0.25% w/v topically prior to laser treatment, twenty-one days after laser surgery) turned out to be 200 μm. Moreover, where the note is “person with AMD, memantine 0.25% w/v topically prior to laser photocoagulation, scan twenty-one days after laser surgery”, the “slope of damage (slope of retinal thickness)” value is on record as “approximately 8”.
